Measured values taken from ChEMBL document CHEMBL1201862, “PubChem BioAssay data set” (2004).
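Compound exposure: 48 hours, 5 concentrations, 96-well plates. GI50 = concentration required for 50% inhibition of growth.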 Activity calls are given as the source filed them. No stated cut-off is given here; in the data, active = GI50 up to about 1.1 µM and inactive = higher. Peptide text beside a SMILES is read from it. * marks the point of attachment. Cbz = O=C(OCc1ccccc1)*

Columns and labels:
Test in all cases: inhibition of tumour cell growth, NCI panel, 48 h
SF-539 = tested on: SF-539
SF-295 = tested on: SF-295
SW-620 = tested on: SW-620
U-251 = tested on: U-251
SNB-19 = tested on: SNB-19
UACC-257 = tested on: UACC-257
LOX IMVI = tested on: LOX IMVI
OVCAR-3 = tested on: OVCAR-3
SK-MEL-5 = tested on: SK-MEL-5
NCI-H522 = tested on: NCI-H522
SNB-75 = tested on: SNB-75
K562 = tested on: K562
HCT-116 = tested on: HCT-116
OVCAR-4 = tested on: OVCAR-4
MDA-N = tested on: MDA-N
786-0 = tested on: 786-0
OVCAR-5 = tested on: OVCAR-5
SK-MEL-2 = tested on: SK-MEL-2
COLO 205 = tested on: COLO 205
KM12 = tested on: KM12

Compound | GI50 (SF-539) | GI50 (SF-295) | GI50 (SW-620) | GI50 (U-251) | GI50 (SNB-19) | GI50 (UACC-257) | GI50 (LOX IMVI) | GI50 (OVCAR-3) | GI50 (SK-MEL-5) | GI50 (NCI-H522) | GI50 (SNB-75) | GI50 (K562) | GI50 (HCT-116) | GI50 (OVCAR-4) | GI50 (MDA-N) | GI50 (786-0) | GI50 (OVCAR-5) | GI50 (SK-MEL-2) | GI50 (COLO 205) | GI50 (KM12)
CCCCCCCC(=O)N/N=C/c1ccc(Sc2nccn2C)c([N+](=O)[O-])c1 | 17 µM (inactive) | 15.6 µM (inactive) | 14.9 µM (inactive) | 16.2 µM (inactive) | 21.4 µM (inactive) | 13.7 µM (inactive) | 10.4 µM (inactive) | 15.6 µM (inactive) | 12.9 µM (inactive) | 12.2 µM (inactive) | 15.5 µM (inactive) | 14.2 µM (inactive) | 14.4 µM (inactive) | 13.2 µM (inactive) | 16.5 µM (inactive) | 14.9 µM (inactive) | 18.2 µM (inactive) | 16.6 µM (inactive) | 13.7 µM (inactive) | 14.1 µM (inactive)
O=C(c1ccccc1)c1ccc(COc2ccc(C(c3c(O)c4ccccc4oc3=O)c3c(O)c4ccccc4oc3=O)cc2)cc1 | 23.9 µM (inactive) | 19.4 µM (inactive) | 25.7 µM (inactive) | 89.3 µM (inactive) | 23.4 µM (inactive) | 19.4 µM (inactive) | 23.9 µM (inactive) | 18.9 µM (inactive) | 18.8 µM (inactive) | 18.2 µM (inactive) | 18.5 µM (inactive) | 19.9 µM (inactive) | 33.3 µM (inactive) | 30.2 µM (inactive) | 26.5 µM (inactive) | 23.6 µM (inactive) | 18.9 µM (inactive) | 18.2 µM (inactive) | 20.2 µM (inactive) | 16.1 µM (inactive)
O=C(O)CCC(NC(=O)OCc1ccccc1)C(=O)NC(Cc1c[nH]cn1)C(=O)O (stereo not drawn) (Cbz-Glu-His-OH; configuration not given here) | > 100 µM (inactive) | > 100 µM (inactive) | > 100 µM (inactive) | > 100 µM (inactive) | > 100 µM (inactive) | > 100 µM (inactive) | > 100 µM (inactive) | > 100 µM (inactive) | > 100 µM (inactive) | > 100 µM (inactive) | > 100 µM (inactive) | > 100 µM (inactive) | > 100 µM (inactive) | > 100 µM (inactive) | > 100 µM (inactive) | > 100 µM (inactive) | > 100 µM (inactive) | > 100 µM (inactive) | > 100 µM (inactive) | > 100 µM (inactive)
Cc1ccc(-c2nnc(-c3ccc4ccccc4c3)o2)cc1 | 19.6 µM (inactive) | 36.2 µM (inactive) | 20 µM (inactive) | 27.7 µM (inactive) | > 96.6 µM (inactive) | 22.2 µM (inactive) | 11.3 µM (inactive) | 99.1 µM (inactive) | > 96.2 µM (inactive) | 69.7 µM (inactive) | 6.7 µM (inactive) | 7.26 µM (inactive) | 23.6 µM (inactive) | 40.3 µM (inactive) | 17.5 µM (inactive) | 11.9 µM (inactive) | > 61.8 µM (inactive) | 2.92 µM (inactive) | > 100 µM (inactive) | > 100 µM (inactive)
CN1N=C(c2ccccc2)C(C(c2ccccc2[N+](=O)[O-])C2C(=O)N(C)N=C2c2ccccc2)C1=O (stereo not given) | > 55.5 µM (inactive) | > 100 µM (inactive) | 99.3 µM (inactive) | > 100 µM (inactive) | > 100 µM (inactive) | > 71.4 µM (inactive) | 26.9 µM (inactive) | 44.6 µM (inactive) | > 100 µM (inactive) | 99.8 µM (inactive) | > 87.1 µM (inactive) | 33.9 µM (inactive) | > 78.7 µM (inactive) | > 100 µM (inactive) | > 100 µM (inactive) | > 70 µM (inactive) | > 100 µM (inactive) | 66.5 µM (inactive) | > 100 µM (inactive) | > 75 µM (inactive)
NS(=O)(=O)c1nnc(/N=C(/CCC(=O)O)C(=O)O)s1 | > 100 µM (inactive) | > 100 µM (inactive) | > 100 µM (inactive) | > 100 µM (inactive) | > 100 µM (inactive) | > 100 µM (inactive) | > 100 µM (inactive) | > 100 µM (inactive) | > 100 µM (inactive) | > 100 µM (inactive) | > 100 µM (inactive) | > 100 µM (inactive) | > 100 µM (inactive) | > 100 µM (inactive) | > 100 µM (inactive) | > 100 µM (inactive) | > 100 µM (inactive) | > 100 µM (inactive) | > 100 µM (inactive) | 20.5 µM (inactive)
O=[N+]([O-])c1cccc2nc3ccccc3c(NCCCN3CCOCC3)c12 | 0.0283 µM (active) | 0.0256 µM (active) | < 0.01 µM (active) | 0.0276 µM (active) | 0.0304 µM (active) | 0.0235 µM (active) | 0.0442 µM (active) | 0.0184 µM (active) | < 0.0114 µM (active) | 0.0168 µM (active) | 0.0387 µM (active) | 0.015 µM (active) | < 0.01 µM (active) | 0.0191 µM (active) | < 0.01 µM (active) | < 0.0106 µM (active) | 0.0287 µM (active) | 0.0194 µM (active) | < 0.01 µM (active) | 0.0154 µM (active)
C=C1c2nc3ccccc3n2C=C(c2ccccc2)N1c1ccc(Cl)cc1 | 7.89 µM (inactive) | 12.6 µM (inactive) | 26.5 µM (inactive) | 13.1 µM (inactive) | 46.1 µM (inactive) | 32.2 µM (inactive) | 45.8 µM (inactive) | 20 µM (inactive) | 15.3 µM (inactive) | 11.5 µM (inactive) | 5.12 µM (inactive) | 51.3 µM (inactive) | 18.5 µM (inactive) | 5.74 µM (inactive) | 78.9 µM (inactive) | 5.83 µM (inactive) | 21.7 µM (inactive) | 69.5 µM (inactive) | > 64.3 µM (inactive) | 24 µM (inactive)
Cc1ccc(OP(=O)(Oc2ccc(C)cc2)N2C=Cc3ccccc3C2C#N)cc1 (stereo not given) | > 100 µM (inactive) | > 100 µM (inactive) | > 100 µM (inactive) | > 100 µM (inactive) | > 100 µM (inactive) | > 100 µM (inactive) | > 100 µM (inactive) | > 100 µM (inactive) | > 100 µM (inactive) | 48.8 µM (inactive) | > 100 µM (inactive) | > 100 µM (inactive) | > 100 µM (inactive) | > 100 µM (inactive) | > 100 µM (inactive) | > 100 µM (inactive) | > 100 µM (inactive) | > 100 µM (inactive) | > 100 µM (inactive) | > 100 µM (inactive)
C[C@]12CC[C@@H]3c4ccc(O)cc4CC[C@H]3[C@@H]1C/C(=C\c1ccc([N+](=O)[O-])cc1)C2=O | 29.9 µM (inactive) | > 100 µM (inactive) | > 100 µM (inactive) | 40.1 µM (inactive) | > 100 µM (inactive) | 34.8 µM (inactive) | 36.6 µM (inactive) | 74 µM (inactive) | 41.5 µM (inactive) | 24.1 µM (inactive) | 50.7 µM (inactive) | 99.8 µM (inactive) | 37.7 µM (inactive) | > 100 µM (inactive) | 49.5 µM (inactive) | > 100 µM (inactive) | > 100 µM (inactive) | 44.6 µM (inactive) | > 100 µM (inactive) | 42.6 µM (inactive)
CC(CCC(=O)O)C(=O)O (stereo not given) | > 100 µM (inactive) | > 100 µM (inactive) | > 100 µM (inactive) | > 100 µM (inactive) | > 100 µM (inactive) | > 100 µM (inactive) | > 100 µM (inactive) | > 100 µM (inactive) | > 100 µM (inactive) | > 100 µM (inactive) | > 100 µM (inactive) | > 100 µM (inactive) | > 100 µM (inactive) | > 100 µM (inactive) | > 100 µM (inactive) | > 100 µM (inactive) | > 100 µM (inactive) | > 100 µM (inactive) | > 100 µM (inactive) | > 100 µM (inactive)
CN(N=O)c1ccc(/C=C/c2ccnc3ccccc23)cc1 | 88.5 µM (inactive) | 41.4 µM (inactive) | 73.3 µM (inactive) | 54.8 µM (inactive) | 46.5 µM (inactive) | 72.4 µM (inactive) | 36.3 µM (inactive) | 95.1 µM (inactive) | 37.1 µM (inactive) | 46.6 µM (inactive) | 25.1 µM (inactive) | 78.9 µM (inactive) | 34 µM (inactive) | > 100 µM (inactive) | 75.3 µM (inactive) | 46.5 µM (inactive) | > 100 µM (inactive) | > 100 µM (inactive) | 39.3 µM (inactive) | 93.5 µM (inactive)
C1CSCCCSCCCSCCCSCCCSC1 | 43.7 µM (inactive) | 22.2 µM (inactive) | 56.5 µM (inactive) | 42.5 µM (inactive) | 37.9 µM (inactive) | 25.5 µM (inactive) | 17.4 µM (inactive) | 28.6 µM (inactive) | 14.2 µM (inactive) | 27.2 µM (inactive) | 20.1 µM (inactive) | 21.4 µM (inactive) | 31.2 µM (inactive) | 22.5 µM (inactive) | 32.3 µM (inactive) | 40.2 µM (inactive) | 57.8 µM (inactive) | 20.7 µM (inactive) | 13.1 µM (inactive) | 25.4 µM (inactive)
